Laboratory results reported in the CheMixHub viscosity set.
Values joined by “and” are separate entries in the source; they are usually repeats but may differ in a detail not shown here. Identical values can stand only once.

Assay: xn = mol fraction of the nth substance listed

C1CCOC1 + O=C1CCCO1
viscosity [mPa·s]
Conditions	293.15 K	298.15 K	303.15 K	308.15 K	313.15 K	318.15 K	323.15 K
101 kPa, x1 = 0.1009	1.614	1.496	1.39	1.297	1.212	1.136	1.068
101 kPa, x1 = 0.2003	1.388	1.292	1.206	1.128	1.058	0.995	0.938
101 kPa, x1 = 0.3008	1.203	1.123	1.052	0.987	0.93	0.877	0.83
101 kPa, x1 = 0.4004	1.046	0.98	0.92	0.866	0.818	0.773	0.733
101 kPa, x1 = 0.4916	0.936	0.878	0.825	0.778	0.735	0.696	0.66
101 kPa, x1 = 0.5991	0.809	0.761	0.717	0.677	0.641	0.608	0.578
101 kPa, x1 = 0.6997	0.706	0.667	0.631	0.598	0.567	0.537	0.511
101 kPa, x1 = 0.8	0.62	0.589	0.56	0.531	0.506	0.482	0.461
101 kPa, x1 = 0.8997	0.567	0.538	0.511	0.485	0.463	0.441	0.415
101.33 kPa, x1 = 0.1077	1.583	1.462	–	–	–	–	–
101.33 kPa, x1 = 0.3124	1.172	1.089	–	–	–	–	–
101.33 kPa, x1 = 0.701	0.682	0.641	–	–	–	–	–
101.33 kPa, x1 = 0.8954	0.539	0.51	–	–	–	–	–

CC(C)C[P+](C)(CC(C)C)CC(C)C.Cc1ccc(S(=O)(=O)[O-])cc1 + O=S1(=O)CCCC1
Conditions	viscosity [mPa·s]
323.15 K, 101.33 kPa, x1 = 0.5	68.5

CCCC[P+](CCCC)(CCCC)CCCC.CS(=O)(=O)[O-] + O=S1(=O)CCCC1
Conditions	viscosity [mPa·s]
313.15 K, 101.33 kPa, x1 = 0.5	84.22

c1ccc2ccccc2c1 + O=[N+]([O-])c1ccccc1
viscosity [mPa·s], 101 kPa
Conditions	303.15 K	308.15 K	313.15 K	318.15 K	323.15 K
x1 = 0.2952	1.646	1.544	1.44	1.329	1.231
x1 = 0.4191	–	1.578	1.45	1.346	1.252

CC(C)=O + OCCO
293.15 K, 101.33 kPa
Conditions	viscosity [mPa·s]
x2 = 0.1258	0.439
x2 = 0.2405	0.625
x2 = 0.2517	0.651
x2 = 0.3451	0.912
x2 = 0.3891	1.086
x2 = 0.5257	1.91
x2 = 0.6291	3.034
x2 = 0.6515	3.393
x2 = 0.7734	6.123
x2 = 0.8254	7.897
x2 = 0.8715	9.97
x2 = 0.921	13.18

CC[N+](CC)(CC)CC.Cc1ccc(S(=O)(=O)[O-])cc1 + OCCO
101 kPa, x1 = 0.2
Conditions	viscosity [mPa·s]
298.15 K	51.2
303.15 K	40.8
308.15 K	32.8
313.15 K	24.4
318.15 K	22.2
323.15 K	17.4

CC[N+](CC)(CC)CC.Cc1ccc(S(=O)(=O)[O-])cc1 + OCCOCCOCCOCCO
101 kPa, x1 = 0.2
Conditions	viscosity [mPa·s]
298.15 K	74.7
303.15 K	57.8
308.15 K	45.9
313.15 K	36.9
318.15 K	30.2
323.15 K	25

O=S(=O)([O-])[O-].[Mn+2] + [2H]O[2H]
viscosity [mPa·s], 101 kPa
Conditions	x1 = 0.005	x1 = 0.012	x1 = 0.02	x1 = 0.029	x1 = 0.037
298.15 K	1.297	1.59	2.183	3.14	4.452
308.15 K	1	1.247	1.696	2.404	3.327
318.15 K	0.827	1.008	1.371	1.912	2.575

O=C(O)CBr + [Br-].[Br-].[Br-].[Br-].[Sn+4]
viscosity [mPa·s], 101 kPa
Conditions	x2 = 0.0895	x2 = 0.2636	x2 = 0.4794	x2 = 0.7268	x2 = 0.9042
313.15 K	3.74	3.07	2.48	2.04	1.88
323.15 K	3.12	2.58	2.15	1.78	1.65

CCCC[P+](CCCC)(CCCC)CCCC.CS(=O)(=O)[O-] + c1c[nH]cn1
101.33 kPa, x1 = 0.5
Conditions	viscosity [mPa·s]
313.05 K	99.81
323.05 K	61.32

Cc1ccc(S(=O)(=O)O)cc1 + c1c[nH]cn1
viscosity, 101.33 kPa
Conditions	303.11 K	303.14 K	313.12 K	313.14 K	323.13 K	323.14 K
x2 = 0.78	43.59 mPa·s	–	27.71 mPa·s	–	18.65 mPa·s	–
x2 = 0.8	54.18 mPa·s	41.78 mPa·s	34.32 mPa·s	26.53 mPa·s	–	20.96 mPa·s and 17.62 mPa·s
